According to patent US9586951B2 (FUJIFILM Corporation, priority 2013, dated 2017):

Target: T1, ATM (Homo sapiens, UniProt Q13315)
T1 construct: detecting phosphorylation of Chk2 in a human non-small cell lung cancer cell line NCI-H460 (ATCC company); host or cells: NCI-H460 human non-small cell lung cancer cells
Experiment: ATM inhibition test (phosphorylation of Chk2 generated by ionizing radiation, AlphaScreen SureFire)
Type: cell-based
Details: phosphorylated Chk2 in NCI-H460 cells, ionizing radiation 8Gy, 1 hour after test compound treatment; read-out: ATM inhibitory activity
Description: ATM inhibitory effects of a test compound were measured by detecting phosphorylation of Chk2 in a human non-small cell lung cancer cell line NCI-H460 (ATCC company). The level of phosphorylated Chk2 generated by an ionizing radiation was measured using AlphaScreen SureFire (TGR Biosciences).
The cells were seeded by 40000 cells per well in 96-well CellBIND® plates (Corning International Inc.), and incubated at 37° C. overnight in 5% CO2. […] 1 hour after a test compound treatment, half of the plates were irradiated with ionizing radiation 8Gy (Faxitron Bioptics, LLC, RX-650 type). The plates irradiated with ionizing radiation and the plates not being irradiated with ionizing radiation were incubated at 37° C. for 1 hour in 5% CO2. […] Subsequent operations were performed according to the instruction book of AlphaScreen SureFire. […] The inhibition ratio was calculated by the following equation. Inhibition ratio (%)=((signal of drug untreated wells in the plates irradiated with ionizing radiation−signal of drug treated wells in the plates irradiated with ionizing radiation)/(signal of drug untreated wells in the plates irradiated with ionizing radiation−signal of drug untreated wells in the plates not being irradiated with ionizing radiation))×100

T1 sequence (Q13315 whole entry): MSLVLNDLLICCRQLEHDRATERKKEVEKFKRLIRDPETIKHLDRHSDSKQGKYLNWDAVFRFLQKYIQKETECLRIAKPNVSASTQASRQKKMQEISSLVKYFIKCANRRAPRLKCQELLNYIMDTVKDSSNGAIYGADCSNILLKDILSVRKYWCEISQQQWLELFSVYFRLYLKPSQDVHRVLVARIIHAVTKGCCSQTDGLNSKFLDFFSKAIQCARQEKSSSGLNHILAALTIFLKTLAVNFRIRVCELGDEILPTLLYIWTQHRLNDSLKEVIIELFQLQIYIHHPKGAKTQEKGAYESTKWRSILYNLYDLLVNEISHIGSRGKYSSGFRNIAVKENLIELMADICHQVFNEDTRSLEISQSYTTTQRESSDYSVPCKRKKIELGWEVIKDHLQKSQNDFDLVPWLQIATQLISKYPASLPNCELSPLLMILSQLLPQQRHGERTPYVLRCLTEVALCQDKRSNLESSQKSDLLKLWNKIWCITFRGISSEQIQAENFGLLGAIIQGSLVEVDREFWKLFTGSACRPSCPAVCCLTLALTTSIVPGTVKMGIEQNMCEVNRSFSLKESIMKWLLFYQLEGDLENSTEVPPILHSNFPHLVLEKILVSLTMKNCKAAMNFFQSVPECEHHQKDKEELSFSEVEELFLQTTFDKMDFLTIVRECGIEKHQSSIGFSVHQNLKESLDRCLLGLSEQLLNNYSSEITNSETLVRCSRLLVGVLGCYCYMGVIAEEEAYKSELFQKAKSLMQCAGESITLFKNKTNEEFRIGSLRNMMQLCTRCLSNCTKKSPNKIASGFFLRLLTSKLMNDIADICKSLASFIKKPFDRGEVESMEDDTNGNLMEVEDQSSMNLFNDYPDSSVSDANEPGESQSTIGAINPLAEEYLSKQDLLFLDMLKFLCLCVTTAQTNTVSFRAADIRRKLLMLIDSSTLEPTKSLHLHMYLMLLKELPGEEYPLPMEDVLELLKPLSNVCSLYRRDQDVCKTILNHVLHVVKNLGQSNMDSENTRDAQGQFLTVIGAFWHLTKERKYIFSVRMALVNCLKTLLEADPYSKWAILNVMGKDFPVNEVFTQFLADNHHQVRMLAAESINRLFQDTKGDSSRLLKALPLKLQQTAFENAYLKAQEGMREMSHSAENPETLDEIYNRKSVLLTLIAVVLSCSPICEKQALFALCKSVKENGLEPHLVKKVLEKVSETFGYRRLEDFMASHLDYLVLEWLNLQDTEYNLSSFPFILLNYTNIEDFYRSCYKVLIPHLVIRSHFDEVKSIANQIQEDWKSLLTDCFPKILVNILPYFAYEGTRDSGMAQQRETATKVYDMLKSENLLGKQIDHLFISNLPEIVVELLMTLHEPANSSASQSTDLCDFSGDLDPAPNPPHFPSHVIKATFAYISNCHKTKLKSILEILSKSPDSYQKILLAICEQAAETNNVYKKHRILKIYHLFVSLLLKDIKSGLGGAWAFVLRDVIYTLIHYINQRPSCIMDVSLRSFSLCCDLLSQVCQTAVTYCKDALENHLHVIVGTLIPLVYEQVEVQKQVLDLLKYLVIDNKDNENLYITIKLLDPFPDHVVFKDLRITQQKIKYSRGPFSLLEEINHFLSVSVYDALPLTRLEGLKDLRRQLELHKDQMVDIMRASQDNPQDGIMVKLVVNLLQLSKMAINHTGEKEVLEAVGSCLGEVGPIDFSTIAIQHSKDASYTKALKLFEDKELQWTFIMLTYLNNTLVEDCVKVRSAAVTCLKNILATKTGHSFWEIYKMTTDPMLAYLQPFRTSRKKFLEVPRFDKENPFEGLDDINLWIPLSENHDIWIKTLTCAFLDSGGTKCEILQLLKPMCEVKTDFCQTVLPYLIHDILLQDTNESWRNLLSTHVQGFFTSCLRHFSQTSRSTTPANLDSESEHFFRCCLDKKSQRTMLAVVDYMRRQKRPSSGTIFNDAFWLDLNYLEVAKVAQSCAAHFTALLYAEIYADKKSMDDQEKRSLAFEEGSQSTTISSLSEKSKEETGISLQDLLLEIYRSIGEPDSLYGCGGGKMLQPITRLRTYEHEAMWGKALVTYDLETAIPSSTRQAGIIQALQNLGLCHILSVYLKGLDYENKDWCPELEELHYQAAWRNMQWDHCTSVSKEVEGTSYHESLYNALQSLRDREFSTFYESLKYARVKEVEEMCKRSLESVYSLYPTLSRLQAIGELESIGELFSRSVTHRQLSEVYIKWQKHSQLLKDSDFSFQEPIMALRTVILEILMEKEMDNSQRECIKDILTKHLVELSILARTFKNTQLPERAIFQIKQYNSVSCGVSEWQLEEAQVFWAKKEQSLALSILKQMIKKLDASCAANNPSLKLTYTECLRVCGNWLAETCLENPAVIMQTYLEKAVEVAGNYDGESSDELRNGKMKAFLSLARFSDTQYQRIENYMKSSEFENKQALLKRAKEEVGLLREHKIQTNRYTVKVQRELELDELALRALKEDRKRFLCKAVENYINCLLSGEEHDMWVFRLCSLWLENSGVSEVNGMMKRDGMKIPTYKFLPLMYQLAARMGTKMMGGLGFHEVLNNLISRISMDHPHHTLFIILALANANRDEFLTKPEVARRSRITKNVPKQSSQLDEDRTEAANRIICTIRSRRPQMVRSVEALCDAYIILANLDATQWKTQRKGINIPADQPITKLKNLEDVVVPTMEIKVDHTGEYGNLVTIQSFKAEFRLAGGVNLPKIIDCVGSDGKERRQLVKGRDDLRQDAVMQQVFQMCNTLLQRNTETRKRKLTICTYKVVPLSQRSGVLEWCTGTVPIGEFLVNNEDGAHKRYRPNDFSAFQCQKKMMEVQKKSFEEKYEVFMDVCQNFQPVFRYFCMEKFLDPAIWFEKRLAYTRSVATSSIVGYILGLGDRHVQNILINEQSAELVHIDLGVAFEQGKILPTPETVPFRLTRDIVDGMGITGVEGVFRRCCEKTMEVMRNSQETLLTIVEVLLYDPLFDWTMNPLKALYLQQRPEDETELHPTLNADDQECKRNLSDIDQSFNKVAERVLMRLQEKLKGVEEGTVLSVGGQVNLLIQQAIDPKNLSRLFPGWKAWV

IC50 [nM]	SMILES
500 to 2000	O=c1cc(N2CCOCC2)cc(-c2cccc3c2Oc2ccc(NC4CCN(CCc5ccccn5)CC4)cc2C3)[nH]1 [Example 2-30-3, 4-Morpholino-6-(7-((1-(2-(pyridin-2-yl)ethyl)piperidin-4-yl)amino)-9H-xanthen-4-yl)pyridin-2(1H)-one]
100 to 500	CC(CN1CCN(C)CC1)Nc1ccc2c(c1)Sc1cccc(-c3cc(N4CCOCC4)cc(=O)[nH]3)c1S2 (single isomer, unassigned) [Example 1-13-3-3, 6-(7-((1-(4-methylpiperazin-1-yl)propan-2-yl)amino)thianthren-1-yl)-4-morpholinopyridin-2(1H)-one]
100 to 500	COc1ccc(CCN2CCC(Nc3ccc4c(c3)Cc3ccc(F)c(-c5cc(N6CCOCC6)cc(=O)[nH]5)c3O4)CC2)cc1 [Example 2-47, 6-(3-Fluoro-7-((1-(4-methoxyphenethyl)piperidin-4-yl)amino)-9H-xanthen-4-yl)-4-morpholinopyridin-2(1H)-one]
100 to 500	CN(C)C1CCN(c2cccc(CNc3ccc4c(c3)Sc3cccc(-c5cc(N6CCOCC6)cc(=O)[nH]5)c3S4)n2)C1 (stereo not shown) [Example 1-12-35, 6-(7-(((6-(3-(Dimethylamino)pyrrolidin-1-yl)pyridin-2-yl)methyl)amino)thianthren-1-yl)-4-morpholino pyridin-2 (1H)-one]
100 to 500	O=C(CNc1ccc2c(c1)Sc1cccc(-c3cc(N4CCOCC4)cc(=O)[nH]3)c1S2)N1CCCCC1 [Example 1-18-2]
100 to 500	COc1ccncc1CN1CCC(Nc2ccc3c(c2)Sc2cccc(-c4cc(N5CCOCC5)cc(=O)[nH]4)c2S3)C1 (stereo not shown) [Example 1-24-10, 6-(7-((1-((4-Methoxypyridin-3-yl)methyl)pyrrolidin-3-yl)amino)thianthren-1-yl)-4-morpholino pyridin-2(1H)-one]
100 to 500	COc1ccncc1CNc1ccc2c(c1)Sc1cccc(-c3cc(N4CCOCC4)cc(=O)[nH]3)c1S2 [Example 1-12-23, 6-(7-(((4-Methoxypyridin-3-yl)methyl)amino)thianthren-1-yl)-4-morpholino pyridin-2 (1H)-one]
100 to 500	CN1CC(Nc2ccc3c(c2)Sc2cccc(-c4cc(N5CCOCC5)cc(=O)[nH]4)c2S3)C(N2CCOCC2)C1 (racemic) [Example 11-2, 6-(7-((1-Methyl-4-morpholinopyrrolidin-3-yl)amino)thianthren-1-yl)-4-morpholinopyridin-2(1H)-one]
100 to 500	CCN1CCN(CC(C)Nc2ccc3c(c2)Sc2cccc(-c4cc(N5CCOCC5)cc(=O)[nH]4)c2S3)CC1 (stereo not shown) [Example 1-13-13, 6-(7-((1-(4-Ethylpiperazin-1-yl)propan-2-yl)amino)thianthren-1-yl)-4-morpholino pyridin-2(1H)-one]
500 to 2000	O=C(N[C@H]1CC[C@H](Nc2ccc3c(c2)Cc2cccc(-c4cc(N5CCOCC5)cc(=O)[nH]4)c2O3)CC1)OCc1ccccc1 [Example 2-2-54, Benzyl ((trans)-4-((5-(4-morpholino-6-oxo-1,6-dihydropyridin-2-yl)-9H-xanthen-2-yl)amino)cyclohexyl)carbamate]
500 to 2000	O=c1cc(N2CCOCC2)cc(-c2cccc3c2Oc2ccc(NC4CCOC4)cc2C3)[nH]1 (stereo not shown) [Example 2-16, 4-Morpholino-6-(7-((tetrahydrofuran-3-yl)amino)-9H-xanthen-4-yl)pyridin-2(1H)-one]
100 to 500	COc1ncccc1CNc1ccc2c(c1)Sc1cccc(-c3cc(N4CCOCC4)cc(=O)[nH]3)c1O2 [Example 4-8-9, 6-(8-(((2-Methoxypyridin-3-yl)methyl)amino)phenoxathiin-4-yl)-4-morpholino pyridin-2 (1H)-one]
500 to 2000	O=c1cc(N2CCOCC2)cc(-c2cccc3c2Oc2ccc(NC4CCN(CCC5CCCCC5)CC4)cc2C3)[nH]1 [Example 2-30-5, 6-(7-((1-(2-Cyclohexylethyl)piperidin-4-yl)amino)-9H-xanthen-4-yl)-4-morpholino pyridin-2 (1H)-one]
100 to 500	CCC(Nc1ccc2c(c1)Sc1cccc(-c3cc(N4CCOCC4)cc(=O)[nH]3)c1S2)c1cncc(OC)c1 (stereo not shown) [Example 1-12-17, 6-(7-((1-(5-Methoxypyridin-3-yl)propyl)amino)thianthren-1-yl)-4-morpholino pyridin-2(1H)-one]
100 to 500	Cc1ccc(C(CC(C)C)Nc2ccc3c(c2)Sc2cccc(-c4cc(N5CCOCC5)cc(=O)[nH]4)c2S3)nc1 (stereo not shown) [Example 1-12-120, 6-(7-((3-Methyl-1-(5-methylpyridin-2-yl)butyl)amino)thianthren-1-yl)-4-morpholino pyridin-2(1H)-one]
100 to 500	CC(=O)N1CCC(Nc2ccc3c(c2)Sc2cccc(-c4cc(N5CCOCC5)cc(=O)[nH]4)c2S3)CC1 [Example 1-12-115, 6-(7-((1-Acetylpiperidin-4-yl)amino)thianthren-1-yl)-4-morpholino pyridin-2 (1H)-one]
100 to 500	O=c1cc(N2CCOCC2)cc(-c2cccc3c2Oc2ccc(NCc4cncc(-n5cncn5)c4)cc2C3)[nH]1 [Example 2-2-59, 6-(7-(((5-(1H-1,2,4-Triazol-1-yl)pyridin-3-yl)methyl)amino)-9H-xanthen-4-yl)-4-morpholino pyridin-2(1H)-one]
100 to 500	CN1CCN(c2cccc(CNc3ccc4c(c3)Sc3cccc(-c5cc(N6CCOCC6)cc(=O)[nH]5)c3S4)n2)CC1 [Example 1-12-33, 6-(7-(((6-(4-Methylpiperazin-1-yl)pyridin-2-yl)methyl)amino)thianthren-1-yl)-4-morpholino pyridin-2 (1H)-one]
100 to 500	COc1cncc(CNc2ccc3c(c2)Cc2cc(C)cc(-c4cc(N5CCOCC5)cc(=O)[nH]4)c2O3)c1 [Example 2-49-2, 6-(7-(((5-Methoxypyridin-3-yl)methyl)amino)-2-methyl-9H-xanthen-4-yl)-4-morpholinopyridin-2(1H)-one]
500 to 2000	CCCCN1CCC(Nc2ccc3c(c2)Cc2cccc(-c4cc(N5CCOCC5)cc(=O)[nH]4)c2O3)CC1C (stereo not shown) [Example 2-19-2, 6-(7-((1-Butyl-2-methylpiperidin-4-yl)amino)-9H-xanthen-4-yl)-4-morpholinopyridin-2(1H)-one]
< 100	O=c1cc(N2CCOCC2)cc(-c2cccc3c2Sc2ccc(NCc4cncc(-n5ccnc5)c4)cc2S3)[nH]1 [Example 1-12-20, 6-(7-(((5-(1H-Imidazol-1-yl)pyridin-3-yl)methyl)amino)thianthren-1-yl)-4-morpholino pyridin-2(1H)-one]
100 to 500	O=c1cc(N2CCOCC2)cc(-c2cccc3c2Sc2ccc(NCc4cncs4)cc2S3)[nH]1 [Example 1-12-54, 4-Morpholino-6-(7-((thiazol-5-ylmethyl)amino)thianthren-1-yl)pyridin-2 (1H)-one]
100 to 500	CC(Nc1ccc2c(c1)Cc1cccc(-c3cc(N4CCOCC4)cc(=O)[nH]3)c1O2)c1nccc(CF)n1 (single isomer, unassigned) [Example 2-14-94-2, 6-(7-((1-(4-(fluoromethyl)pyrimidin-2-yl)ethyl)amino)-9H-xanthen-4-yl)-4-morpholinopyridin-2(1H)-one]
100 to 500	Cc1ccc(C(C)Nc2ccc3c(c2)Sc2cccc(-c4cc(N5CCOCC5)cc(=O)[nH]4)c2S3)nc1 (single isomer, unassigned) [Example 1-12-143-2, 6-(7-((1-(5-methylpyridin-2-yl)ethyl)amino)thianthren-1-yl)-4-morpholinopyridin-2(1H)-one]
< 100	Cc1ccc(C(Nc2ccc3c(c2)Sc2cccc(-c4cc(N5CCOCC5)cc(=O)[nH]4)c2S3)[C@H]2CCN(C)C2)nc1 (single isomer, unassigned) [Example 1-56-14]
100 to 500	Cc1cncc(C(C)Nc2ccc3c(c2)Cc2cccc(-c4cc(N5CCOCC5)cc(=O)[nH]4)c2O3)n1 (stereo not shown) [Example 2-14-49, 6-(7-((1-(6-Methylpyrazin-2-yl)ethyl)amino)-9H-xanthen-4-yl)-4-morpholino pyridin-2(1H)-one]
100 to 500	O=c1cc(N2CCOCC2)cc(-c2cccc3c2Oc2ccc(NCc4ccoc4)cc2C3)[nH]1 [Example 2-14-34, 6-(7-((Furan-3-ylmethyl)amino)-9H-xanthen-4-yl)-4-morpholino pyridin-2(1H)-one]
500 to 2000	O=c1cc(N2CCOCC2)cc(-c2cccc3c2Sc2ccc(NCCCc4cccnc4)cc2S3)[nH]1 [Example 1-12-27, 4-Morpholino-6-(7-((3-(pyridin-3-yl)propyl)amino)thianthren-1-yl)pyridin-2(1H)-one]
500 to 2000	CC(C)CC(Nc1ccc2c(c1)Sc1cccc(-c3cc(N4CCOCC4)cc(=O)[nH]3)c1S2)[C@H](C)N (stereo partly drawn) [Example 1-20-4, 6-(7-(((2S)-2-Amino-5-methylhexan-3-yl)amino)thianthren-1-yl)-4-morpholino pyridin-2(1H)-one]

SMILES	IC50 [nM]
CC(CN1C2CCC1COC2)Nc1ccc2c(c1)Sc1cccc(-c3cc(N4CCOCC4)cc(=O)[nH]3)c1S2 (stereo not shown) [Example 1-13-5, 6-(7-((1-(3-Oxa-8-azabicyclo [3.2.1]octan-8-yl)propan-2-yl)amino)thianthren-1-yl)-4-morpholino pyridin-2(1H)-one]	100 to 500
O=c1cc(N2CCOCC2)cc(-c2cccc3c2Sc2ccc(NC(CF)CN4CCOCC4)cc2S3)[nH]1 (single isomer, unassigned) [Example 1-41-1-3, 6-(7-((1-fluoro-3-morpholinopropan-2-yl)amino)thianthren-1-yl)-4-morpholinopyridin-2(1H)-one]	100 to 500
